According to patent US6555650B1, “Cyclic analogs of histatins” (priority 1999, dated 2003):
Positions of bridges follow the written chain, without caps; N, C: chain ends. Residues, ends and D or L forms follow the SMILES beside them. No end group written: not given here.

Assays:
[1] = test system: S. cerevisiae; experiment: fungistatic MIC assay in antifungal agar; assay type: cell-based; details: for activity after additional deletions at the C-terminal: relative to Db2-121
Experimental: The compounds of Table 1 were tested for fungistatic activity with an assay based on the work of Gordon, Lapa et.al. (18) with the nonpathogenic yeast S. cerevisiae in which ketoconazole is used as control. A semisolid is prepared to which is added serial dilutions of peptide. This antifungal agar is distributed in a well plate, and the S. Cerevisiae inoculum is then added to each well. Both ketokonoazole and H-5 are used as positive controls and buffer is used as a control blank. Minimum inhibitory concentration MIC, i.e. the concentration of the peptide under test which prevents growth, as observed visually, is recorded for each sample so that low values of MIC indicate potent antifungal compounds.
More specifically, stock peptide solutions (600 microliters or 1 ml) were prepared to 10 times the final concentration of the most concentrated test sample in a sodium phosphate buffer (0.01 M0, pH 7.4). Peptide concentrations were determined by UV absorbance at λ=275. Control blanks were also prepared using 1 ml buffer Five serial dilutions were made in sterile culture tubes with buffer to create a range of peptide concentrations. The final volume in each tube was either 300 microliter or 1 ml. Agar medium (2.7 or 4.5 ml) was added to each tube and mixed. Aliquots (1 ml) of each were added to a 24 well plate to give 6 different concentrations of each peptide per plate. […] A stock solution (10 mg/mL DMSO) was diluted 1:49 with buffer. A range of final concentrations of 20 to 0.16 micrograms/ml was tested. In addition, in later analog assays, H-5 was included as a positive peptide control. Histatin 5 was tested in a range from 200 micromolar to 6.3 micromolar. Other analogs were tested at concentrations anywhere from 200 μM down to 0.14 μM ubtil the analog with lowest MIC concentration was identified.
S. cerevisiae cells grown overnight were centrifuged and washed with a 0.85% saline solution, three times. Cell concentration was adjusted to 85% transmission at λ=530 with saline solution. Cells were further diluted 1:19. Inoculant (10 microL) was added to the peptide-containing medium. The cells were incubated on this medium for 24 hours at 37° C. The fungistatic MIC for these compounds was defined as the minimum concentration required to achieve 100% inhibition after 24 hours.

[2] = test system: C. albicans; details: against C. albicans; cited from earlier work
[3] = S. cerevisiae, minimum concentration for 100% inhibition after 24 hours at 37° C.

Compound | MIC range [1, 3] | also measured
N=C(N)NCCC[C@H](NC(=O)[C@H](Cc1c[nH]cn1)NC(=O)[C@@H]1CSSC[C@H](NC(=O)[C@H](Cc2c[nH]cn2)NC(=O)[C@H](Cc2c[nH]cn2)NC(=O)[C@@H](N)CCCNC(=N)N)C(=O)N[C@@H](Cc2ccc(O)cc2)C(=O)N[C@@H](CCCCN)C(=O)N[C@@H](CCCNC(=N)N)C(=O)N[C@@H](CCCCN)C(=O)N[C@@H](Cc2ccccc2)C(=O)N[C@@H](Cc2c[nH]cn2)C(=O)N[C@@H](CCC(=O)O)C(=O)N[C@@H](CCCCN)C(=O)N[C@@H](Cc2c[nH]cn2)C(=O)N[C@@H](Cc2c[nH]cn2)C(=O)N1)C(=O)NCC(=O)N[C@@H](Cc1ccc(O)cc1)C(=O)O [Db2-121] (H-RHHCYKRKFHEKHHCHRGY-OH; disulfide 4-15; N-terminus assumed) |  | times more potent than H-5 ([1]; against S. cerevisiae): approximately 100 times; times more potent than ketoconazole ([1]; against S. cerevisiae): ~10 times
CC(=O)N1CCN(c2ccc(OCC3COC(Cn4ccnc4)(c4ccc(Cl)cc4Cl)O3)cc2)CC1 (centres unmarked) [Ketoconazole, reference compound] | 4.7 | 
Arg His His Cys Trp Lys Arg Lys Phe His Glu Lys His His Cys His Arg Gly Tyr (RHHCWKRKFHEKHHCHRGY; disulfide 4-15 (inferred)) [Db3-67] | 0.67-1.34 | 
Arg His His Cys Tyr Lys Arg Lys Cys His Glu Lys His His Cys His Arg Cys Tyr (RHHCYKRKCHEKHHCHRCY; also: cyclic analogue, ring not given here) [Db2-100] | 0.63-1.25 | 
Arg His His Cys Tyr Lys Arg Lys His His Glu Lys His His Cys His Arg Gly Tyr (RHHCYKRKHHEKHHCHRGY; disulfide 4-15 (inferred)) [Db3-13] | 2.6-5.1 | 
Arg His His Cys Tyr Lys Arg Lys Phe His Glu Lys His His Cys His (RHHCYKRKFHEKHHCH; disulfide 4-15 (inferred)) [Db3-25] | >5.2 | 
Arg His His Cys Tyr Lys Arg Lys Phe His Glu Lys His His Cys His Arg (RHHCYKRKFHEKHHCHR; also: cyclic analogue, ring not given here) [Db3-15] | 2.6-5.2 | activity after additional deletions at the C-terminal [1]: small loss of activity
Arg His His Cys Tyr Lys Arg Lys Phe His Glu Lys His His Cys His Arg Gly (RHHCYKRKFHEKHHCHRG; also: cyclic analogue, ring not given here) [Db3-19] | 1.3-2.6 | activity after additional deletions at the C-terminal [1]: small loss of activity
Arg His His Cys Tyr Lys Arg Lys Phe His Glu Lys His His Cys His Arg Gly Tyr [Db3-35] (RHHCYKRKFHEKHHCHRGY; also: cyclic analogue, ring not given here) | 1.3-2.5 | 
Arg His His Cys Tyr Lys Arg Lys Phe His Glu Lys His His Cys His Arg Gly Tyr [Db3-53] (RHHCYKRKFHEKHHCHRGY; also: cyclic analogue, ring not given here) | >5 | 
Arg His His Gly Cys Lys Arg Lys Phe His Glu Lys His His Cys His Arg Gly Tyr (RHHGCKRKFHEKHHCHRGY; disulfide 5-15 (inferred)) [Db2-178] | 2.5-5 | 
Arg His His Gly Cys Lys Arg Lys Phe His Glu Lys His His Ser Cys Arg Gly Tyr (RHHGCKRKFHEKHHSCRGY; disulfide 5-16 (inferred)) [Db3-11] | 2.5-5 | 
Arg His His Gly Tyr Cys Arg Lys Phe His Glu Lys His His Cys His Arg Gly Tyr (RHHGYCRKFHEKHHCHRGY; disulfide 6-15 (inferred)) [Db2-179] | 2.5-5 | 
Arg His His Gly Tyr Lys Cys Lys Phe His Glu Lys His His Cys His Arg Gly Tyr (RHHGYKCKFHEKHHCHRGY; disulfide 7-15 (inferred)) [Db2-180] | 1.25-2.5 | 
RHHCYRKFHEKHHC (cysteine pairing not given here) [Db3-30] | >5.2 | 
RHHKYRKFHEKHHEHRGY [Db3-41] |  | MIC range ([1]; fungistatic activity): 0.55 to 1.1 µM
histatin-5 [Peptide H-5] |  | minimum inhibitory concentration (MIC) [2]: 10 µg/mL
